Experiment [1] has as its target T1, Glucagon-like peptide 2 receptor (Homo sapiens, UniProt O95838).
T1 sequence (O95838 whole entry): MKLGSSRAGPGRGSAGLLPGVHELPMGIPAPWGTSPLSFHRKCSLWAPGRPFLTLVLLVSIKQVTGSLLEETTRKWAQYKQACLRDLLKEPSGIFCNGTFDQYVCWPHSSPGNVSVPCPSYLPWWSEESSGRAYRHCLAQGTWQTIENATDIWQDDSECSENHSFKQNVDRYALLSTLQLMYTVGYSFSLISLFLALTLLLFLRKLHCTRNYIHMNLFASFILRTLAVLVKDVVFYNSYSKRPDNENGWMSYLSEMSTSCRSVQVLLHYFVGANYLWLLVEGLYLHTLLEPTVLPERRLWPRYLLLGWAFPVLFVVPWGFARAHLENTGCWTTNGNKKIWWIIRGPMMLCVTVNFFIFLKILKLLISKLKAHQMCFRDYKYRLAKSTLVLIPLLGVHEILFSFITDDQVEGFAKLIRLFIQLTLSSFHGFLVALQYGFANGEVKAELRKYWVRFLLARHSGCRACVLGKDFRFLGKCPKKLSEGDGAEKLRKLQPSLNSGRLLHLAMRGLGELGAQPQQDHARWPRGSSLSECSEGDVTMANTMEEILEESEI
Nature of the experiment: Agonist activity at human GLP2R expressed in HEK293 cells after 5 hrs by luciferase reporter gene assay. The format is cell-based. In general terms: In a reporter assay the amount or activity of a reporter protein is the signal.

Experiment [2] addresses Glucagon-like peptide 1 receptor (Homo sapiens, UniProt P43220). As to the kind of experiment: Agonist activity at human GLP1R expressed in HEK293 cells after 5 hrs by luciferase reporter gene assay. In kind it is cell-based.

SMILES strings stand for the structures. pEC50: −log10 of the molar value.

Chain of Glucagon-like peptide 1 receptor (P43220 whole entry): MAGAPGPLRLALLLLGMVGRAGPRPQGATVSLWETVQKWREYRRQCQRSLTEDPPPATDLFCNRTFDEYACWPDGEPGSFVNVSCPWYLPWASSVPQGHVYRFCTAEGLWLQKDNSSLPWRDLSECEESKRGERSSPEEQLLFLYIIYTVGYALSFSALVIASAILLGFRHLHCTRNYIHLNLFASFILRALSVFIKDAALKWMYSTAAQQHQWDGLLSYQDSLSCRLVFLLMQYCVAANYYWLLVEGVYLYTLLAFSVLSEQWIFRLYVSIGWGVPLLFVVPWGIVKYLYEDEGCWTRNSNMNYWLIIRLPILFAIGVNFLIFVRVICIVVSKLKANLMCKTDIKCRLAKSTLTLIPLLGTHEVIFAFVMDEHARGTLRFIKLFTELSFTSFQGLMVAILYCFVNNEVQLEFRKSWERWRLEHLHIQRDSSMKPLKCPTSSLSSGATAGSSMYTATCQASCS

In the case of `CCCC[C@H](NC(=O)[C@H](CCC(=O)O)NC(=O)[C@H](CC(=O)O)NC(=O)[C@H](CO)NC(=O)[C@H](Cc1ccccc1)NC(=O)[C@H](CO)NC(=O)CNC(=O)[C@H](CC(=O)O)NC(=O)CNC(=O)[C@@H](N)Cc1c[nH]cn1)C(=O)N[C@@H](CC(N)=O)C(=O)N[C@H](C(=O)N[C@H](C(=O)N[C@@H](CC(C)C)C(=O)N[C@@H](CC(=O)O)C(=O)N[C@@H](Cc1ccc(N)cc1)C(=O)N[C@@H](CC(C)C)C(=O)N[C@@H](C)C(=O)N[C@@H](C)C(=O)N[C@@H](CCCNC(=N)N)C(=O)N[C@@H](CC(=O)O)C(=O)N[C@@H](Cc1ccccc1)C(=O)N[C@H](C(=O)N[C@@H](CC(N)=O)C(=O)N[C@@H](Cc1c[nH]c2ccccc12)C(=O)N[C@@H](CC(C)C)C(=O)N[C@H](C(=O)N[C@@H](CCC(N)=O)C(=O)N[C@H](C(=O)N[C@@H](CCCCN)C(N)=O)[C@@H](C)O)[C@@H](C)CC)[C@@H](C)CC)[C@@H](C)CC)[C@@H](C)O`, the results for the pEC50 in experiment [1] and in experiment [2] were 9.89 and less than 6.00, respectively.
For the compound `CCCC[C@H](NC(=O)[C@H](CCC(=O)O)NC(=O)[C@H](CC(=O)O)NC(=O)[C@H](CO)NC(=O)[C@H](Cc1ccccc1)NC(=O)[C@H](CO)NC(=O)CNC(=O)[C@H](CC(=O)O)NC(=O)CNC(=O)[C@@H](N)Cc1cnc[nH]1)C(=O)N[C@H](Cc1ccc(Cl)cc1)C(=O)N[C@H](C(=O)N[C@H](C(=O)N[C@@H](CC(C)C)C(=O)N[C@@H](CC(=O)O)C(=O)N[C@@H](CC(N)=O)C(=O)N[C@@H](CC(C)C)C(=O)N[C@@H](C)C(=O)N[C@@H](C)C(=O)N[C@@H](CCCNC(=N)N)C(=O)N[C@@H](CC(=O)O)C(=O)N[C@@H](Cc1ccccc1)C(=O)N[C@H](C(=O)N[C@@H](CC(N)=O)C(=O)N[C@@H](Cc1c[nH]c2ccccc12)C(=O)N[C@@H](CC(C)C)C(=O)N[C@H](C(=O)N[C@@H](CCC(N)=O)C(=O)N[C@H](C(=O)N[C@@H](CCCCN)C(N)=O)[C@@H](C)O)[C@@H](C)CC)[C@@H](C)CC)[C@@H](C)CC)[C@@H](C)O`, the pEC50 in experiment [1] was 10.05; in experiment [2], 7.22.
`CCCC[C@H](NC(=O)[C@H](CCC(=O)O)NC(=O)[C@H](CC(=O)O)NC(=O)[C@H](CO)NC(=O)[C@H](Cc1ccccc1)NC(=O)[C@H](CO)NC(=O)CNC(=O)[C@H](CC(=O)O)NC(=O)CNC(=O)[C@@H](N)Cc1cnc[nH]1)C(=O)N[C@@H](CC(N)=O)C(=O)N[C@H](C(=O)N[C@H](C(=O)N[C@@H](CC(C)C)C(=O)N[C@@H](CC(=O)O)C(=O)N[C@@H](CC1CCCCC1)C(=O)N[C@@H](CC(C)C)C(=O)N[C@@H](C)C(=O)N[C@@H](C)C(=O)N[C@@H](CCCNC(=N)N)C(=O)N[C@@H](CC(=O)O)C(=O)N[C@@H](Cc1ccccc1)C(=O)N[C@H](C(=O)N[C@@H](CC(N)=O)C(=O)N[C@@H](Cc1c[nH]c2ccccc12)C(=O)N[C@@H](CC(C)C)C(=O)N[C@H](C(=O)N[C@@H](CCC(N)=O)C(=O)N[C@H](C(=O)N[C@@H](CCCCN)C(N)=O)[C@@H](C)O)[C@@H](C)CC)[C@@H](C)CC)[C@@H](C)CC)[C@@H](C)O`: the pEC50 is 10.00 in experiment [1] and less than 6.00 in experiment [2].
With `CCCC[C@H](NC(=O)[C@H](CCC(=O)O)NC(=O)[C@H](CC(=O)O)NC(=O)[C@H](CO)NC(=O)[C@H](Cc1ccccc1)NC(=O)[C@H](CO)NC(=O)CNC(=O)[C@H](CC(=O)O)NC(=O)CNC(=O)[C@@H](N)Cc1cnc[nH]1)C(=O)N[C@H](Cc1cccs1)C(=O)N[C@H](C(=O)N[C@H](C(=O)N[C@@H](CC(C)C)C(=O)N[C@@H](CC(=O)O)C(=O)N[C@@H](Cc1ccccc1)C(=O)N[C@@H](CC(C)C)C(=O)N[C@@H](C)C(=O)N[C@@H](C)C(=O)N[C@@H](CCCNC(=N)N)C(=O)N[C@@H](CC(=O)O)C(=O)N[C@@H](Cc1ccccc1)C(=O)N[C@H](C(=O)N[C@@H](CC(N)=O)C(=O)N[C@@H](Cc1c[nH]c2ccccc12)C(=O)N[C@@H](CC(C)C)C(=O)N[C@H](C(=O)N[C@@H](CCC(N)=O)C(=O)N[C@H](C(=O)N[C@@H](CCCCN)C(N)=O)[C@@H](C)O)[C@@H](C)CC)[C@@H](C)CC)[C@@H](C)CC)[C@@H](C)O`, the figures for the negative logarithm of the EC50 (pEC50) in experiment [1] and in experiment [2] were 10.10 and less than 6.00, respectively.
The matching figures for `CCCC[C@H](NC(=O)[C@H](CCC(=O)O)NC(=O)[C@H](CC(=O)O)NC(=O)[C@H](CO)NC(=O)[C@H](Cc1ccccc1)NC(=O)[C@H](CO)NC(=O)CNC(=O)[C@H](CC(=O)O)NC(=O)CNC(=O)[C@@H](N)Cc1cnc[nH]1)C(=O)N[C@@H](CC(N)=O)C(=O)N[C@H](C(=O)N[C@H](C(=O)N[C@@H](CC(C)C)C(=O)N[C@@H](CC(=O)O)C(=O)N[C@@H](Cc1ccc(-c2ccccc2)cc1)C(=O)N[C@@H](CC(C)C)C(=O)N[C@@H](C)C(=O)N[C@@H](C)C(=O)N[C@@H](CCCNC(=N)N)C(=O)N[C@@H](CC(=O)O)C(=O)N[C@@H](Cc1ccccc1)C(=O)N[C@H](C(=O)N[C@@H](CC(N)=O)C(=O)N[C@@H](Cc1c[nH]c2ccccc12)C(=O)N[C@@H](CC(C)C)C(=O)N[C@H](C(=O)N[C@@H](CCC(N)=O)C(=O)N[C@H](C(=O)N[C@@H](CCCCN)C(N)=O)[C@@H](C)O)[C@@H](C)CC)[C@@H](C)CC)[C@@H](C)CC)[C@@H](C)O`: 9.46 and less than 6.00.
The matching figures for `CCCC[C@H](NC(=O)[C@H](CCC(=O)O)NC(=O)[C@H](CC(=O)O)NC(=O)[C@H](CO)NC(=O)[C@H](Cc1ccccc1)NC(=O)[C@H](CO)NC(=O)CNC(=O)[C@H](CC(=O)O)NC(=O)CNC(=O)[C@@H](N)Cc1cnc[nH]1)C(=O)N[C@H](Cc1ccccc1)C(=O)N[C@H](C(=O)N[C@H](C(=O)N[C@@H](CC(C)C)C(=O)N[C@@H](CC(=O)O)C(=O)N[C@@H](CC(C)C)C(=O)N[C@@H](CC(C)C)C(=O)N[C@@H](C)C(=O)N[C@@H](C)C(=O)N[C@@H](CCCNC(=N)N)C(=O)N[C@@H](CC(=O)O)C(=O)N[C@@H](Cc1ccccc1)C(=O)N[C@H](C(=O)N[C@@H](CC(N)=O)C(=O)N[C@@H](Cc1c[nH]c2ccccc12)C(=O)N[C@@H](CC(C)C)C(=O)N[C@H](C(=O)N[C@@H](CCC(N)=O)C(=O)N[C@H](C(=O)N[C@@H](CCCCN)C(=O)N[C@H](C(=O)N[C@H](C(=O)N[C@@H](CC(=O)O)C(=O)NCCOCCOCCOCCOCCC(N)=O)[C@@H](C)O)[C@@H](C)CC)[C@@H](C)O)[C@@H](C)CC)[C@@H](C)CC)[C@@H](C)CC)[C@@H](C)O`: 10.52 and less than 6.00.
On to `CCCC[C@H](NC(=O)[C@H](CCC(=O)O)NC(=O)[C@H](CC(=O)O)NC(=O)[C@H](CO)NC(=O)[C@H](Cc1ccccc1)NC(=O)[C@H](CO)NC(=O)CNC(=O)[C@H](CC(=O)O)NC(=O)CNC(=O)[C@@H](N)Cc1cnc[nH]1)C(=O)N[C@H](CC(C)C)C(=O)N[C@H](C(=O)N[C@H](C(=O)N[C@@H](CC(C)C)C(=O)N[C@@H](CC(=O)O)C(=O)N[C@@H](CC(N)=O)C(=O)N[C@@H](CC(C)C)C(=O)N[C@@H](C)C(=O)N[C@@H](C)C(=O)N[C@@H](CCCNC(=N)N)C(=O)N[C@@H](CC(=O)O)C(=O)N[C@@H](Cc1ccccc1)C(=O)N[C@H](C(=O)N[C@@H](CC(N)=O)C(=O)N[C@@H](Cc1c[nH]c2ccccc12)C(=O)N[C@@H](CC(C)C)C(=O)N[C@H](C(=O)N[C@@H](CCC(N)=O)C(=O)N[C@H](C(=O)N[C@@H](CCCCN)C(N)=O)[C@@H](C)O)[C@@H](C)CC)[C@@H](C)CC)[C@@H](C)CC)[C@@H](C)O`, for which the figures for the pEC50 in experiment [1] and in experiment [2] were 9.51 and less than 6.00, respectively.
As to `CCCC[C@H](NC(=O)[C@H](CCC(=O)O)NC(=O)[C@H](CC(=O)O)NC(=O)[C@H](CO)NC(=O)[C@H](Cc1ccccc1)NC(=O)[C@H](CO)NC(=O)CNC(=O)[C@H](CC(=O)O)NC(=O)CNC(=O)[C@@H](N)Cc1c[nH]cn1)C(=O)N[C@@H](CC(N)=O)C(=O)N[C@H](C(=O)N[C@H](C(=O)N[C@@H](CC(C)C)C(=O)N[C@@H](CC(=O)O)C(=O)N[C@@H](Cc1ccc2ccccc2c1)C(=O)N[C@@H](CC(C)C)C(=O)N[C@@H](C)C(=O)N[C@@H](C)C(=O)N[C@@H](CCCNC(=N)N)C(=O)N[C@@H](CC(=O)O)C(=O)N[C@@H](Cc1ccccc1)C(=O)N[C@H](C(=O)N[C@@H](CC(N)=O)C(=O)N[C@@H](Cc1c[nH]c2ccccc12)C(=O)N[C@@H](CC(C)C)C(=O)N[C@H](C(=O)N[C@@H](CCC(N)=O)C(=O)N[C@H](C(=O)N[C@@H](CCCCN)C(N)=O)[C@@H](C)O)[C@@H](C)CC)[C@@H](C)CC)[C@@H](C)CC)[C@@H](C)O`, the pEC50 was 9.89 in experiment [1] and less than 6.00 in experiment [2].
The matching figures for `CCCC[C@H](NC(=O)[C@H](CCC(=O)O)NC(=O)[C@H](CC(=O)O)NC(=O)[C@H](CO)NC(=O)[C@H](Cc1ccccc1)NC(=O)[C@H](CO)NC(=O)CNC(=O)[C@H](CC(=O)O)NC(=O)CNC(=O)[C@@H](N)Cc1cnc[nH]1)C(=O)N[C@H](Cc1ccccc1)C(=O)N[C@H](C(=O)N[C@H](C(=O)N[C@@H](CC(C)C)C(=O)N[C@@H](CC(=O)O)C(=O)N[C@@H](CC(C)C)C(=O)N[C@@H](CC(C)C)C(=O)N[C@@H](C)C(=O)N[C@@H](C)C(=O)N[C@@H](CCCNC(=N)N)C(=O)N[C@@H](CC(=O)O)C(=O)N[C@@H](Cc1ccccc1)C(=O)N[C@H](C(=O)N[C@@H](CC(N)=O)C(=O)N[C@@H](Cc1c[nH]c2ccccc12)C(=O)N[C@@H](CC(C)C)C(=O)N[C@H](C(=O)N[C@@H](CCC(N)=O)C(=O)N[C@H](C(=O)N[C@@H](CCCCN)C(=O)N[C@H](C(=O)N[C@H](C(=O)N[C@@H](CC(=O)O)C(=O)NCC)[C@@H](C)O)[C@@H](C)CC)[C@@H](C)O)[C@@H](C)CC)[C@@H](C)CC)[C@@H](C)CC)[C@@H](C)O`: 10.30 and less than 6.00.

In general, pEC50 refers to the negative decadic logarithm of the EC50, by convention in mol/L.

Source of the values: ChEMBL document CHEMBL3822442, “Synthesis and Pharmacological Characterization of Novel Glucagon-like Peptide-2 (GLP-2) Analogues with Low Systemic Clearance” (J Med Chem, 2016).
